Results from US8129396B2, “2-[1H-benzimidazol-2(3H)-ylidene]-2-(pyrimidin-2-yl)acetamides and 2-[benzothiazol-2(3H)-ylidene]-2-(pyrimidin-2-yl)acetamides as kinase inhibitors” (Telik, Inc., priority 2008, dated 2012).

What was measured:
p-H3 in HCT116 cells = test: Histone phosphorylation (p-H3) assay; format: cell-based; conditions: Homo sapiens, HCT-116; HCT116 cells, 4 hr incubation; read-out: p-H3 IC50
Excerpt: (§1) The cell lines HL60 (human promyelocytic leukemia) and HCT116 (human colon carcinoma) were obtained from the American Type Culture Collection, Manassas, Va., U.S.A., and HUVEC-2 (human umbilical vein endothelial cells) from BD Biosciences, Bedford, Mass., U.S.A. Aurora A kinase was obtained from Upstate Biotech, Billerica, Mass., U.S.A.; Aurora B kinase from BPS Bioscience, San Diego, Calif., U.S.A.; and VEGFR2 kinase from Cell Signaling Technology, Danvers, Mass., U.S.A. The IMAP FP Screening Express kit was obtained from Molecular Devices, Sunnyvale, Calif., U.S.A.; the CellTiter-Glo assay kit from Promega Corporation, Madison, Wis., U.S.A.; and the Cellular DNA Cytometric Analysis Reagent Kit and BrdU labeling and detection kit from Roche Diagnostics Corporation, Indianapolis, Ind., U.S.A. All products were used in accordance with manufacturer's directions. Kinase inhibition assays and the histone phosphorylation (p-H3) assay were conducted in duplicate, and the cytotoxicity and HUVEC proliferation assays were conducted in triplicate, in each case with solvent control.
Log phase HCT116 cells were seeded at 2.5×10^4 cells/well in a 96-well plate and allowed to attach overnight. The test compounds were diluted in DMSO (8 concentrations with serial 3-fold dilutions) and added to the cells (0.5% DMSO final concentration), and the cells incubated for 4 hr. The cells were then washed three times with cold phosphate-buffered saline (PBS), and lysis buffer was added. After 30 min shaking at 4° C. and centrifugation, the supernatants were transferred to a nitrocellulose membrane by a “dot-blot” apparatus. After washing the wells, the membrane was processed for Western blot. Detection of p-H3 and β-actin was performed on the same membrane with primary rabbit anti-p-H3 and mouse anti-β-actin antibodies followed by secondary goat anti-rabbit IRDye800 and goat anti-mouse AlexaFluor 680 antibodies. The membranes were scanned on an Odyssey scanner.

Aurora B kinase = target: T1, Aurora B kinase (Homo sapiens, UniProt Q96GD4); test: Aurora B kinase assay (IMAP fluorescence polarization); format: biochemical; conditions: 10 μM ATP; rounded to 1 significant figure; read-out: Aur-B IC50
T1 construct: purchased BPS Bioscience
T1 sequence (Q96GD4 whole entry): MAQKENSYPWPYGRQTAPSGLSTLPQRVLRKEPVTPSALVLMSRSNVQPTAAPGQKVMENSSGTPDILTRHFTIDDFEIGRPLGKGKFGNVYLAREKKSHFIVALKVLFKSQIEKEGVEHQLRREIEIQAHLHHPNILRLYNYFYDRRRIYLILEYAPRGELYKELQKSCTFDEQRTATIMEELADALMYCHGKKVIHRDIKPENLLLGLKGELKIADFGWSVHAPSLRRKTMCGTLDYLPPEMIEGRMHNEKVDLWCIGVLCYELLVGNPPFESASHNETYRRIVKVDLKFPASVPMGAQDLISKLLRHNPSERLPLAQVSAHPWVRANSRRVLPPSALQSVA
Excerpt: as §1
(§2) The kinase reaction was initiated by adding 100 nM fluorescein labeled PKAtide and 10 μM adenosine triphosphate (ATP), and allowed to continue for 45 min at room temperature, after which it was stopped by adding binding reagent (1:400 dilution in binding buffer A). After 30 min of room temperature incubation with shaking, the fluorescence polarization was measured on a LJL plate reader. Aurora B kinase assay: performed as for the Aurora A kinase assay, but using Aurora B kinase instead of Aurora A kinase.

VEGFR2 kinase = target: T2, VEGFR2 kinase (Homo sapiens, UniProt P35968); test: VEGFR2 kinase assay; format: biochemical; conditions: 6 μM ATP, 1 mM MnCl2; rounded to 1 significant figure
T2 construct: purchased Cell Signaling Technology
T2 sequence (P35968 20-1356): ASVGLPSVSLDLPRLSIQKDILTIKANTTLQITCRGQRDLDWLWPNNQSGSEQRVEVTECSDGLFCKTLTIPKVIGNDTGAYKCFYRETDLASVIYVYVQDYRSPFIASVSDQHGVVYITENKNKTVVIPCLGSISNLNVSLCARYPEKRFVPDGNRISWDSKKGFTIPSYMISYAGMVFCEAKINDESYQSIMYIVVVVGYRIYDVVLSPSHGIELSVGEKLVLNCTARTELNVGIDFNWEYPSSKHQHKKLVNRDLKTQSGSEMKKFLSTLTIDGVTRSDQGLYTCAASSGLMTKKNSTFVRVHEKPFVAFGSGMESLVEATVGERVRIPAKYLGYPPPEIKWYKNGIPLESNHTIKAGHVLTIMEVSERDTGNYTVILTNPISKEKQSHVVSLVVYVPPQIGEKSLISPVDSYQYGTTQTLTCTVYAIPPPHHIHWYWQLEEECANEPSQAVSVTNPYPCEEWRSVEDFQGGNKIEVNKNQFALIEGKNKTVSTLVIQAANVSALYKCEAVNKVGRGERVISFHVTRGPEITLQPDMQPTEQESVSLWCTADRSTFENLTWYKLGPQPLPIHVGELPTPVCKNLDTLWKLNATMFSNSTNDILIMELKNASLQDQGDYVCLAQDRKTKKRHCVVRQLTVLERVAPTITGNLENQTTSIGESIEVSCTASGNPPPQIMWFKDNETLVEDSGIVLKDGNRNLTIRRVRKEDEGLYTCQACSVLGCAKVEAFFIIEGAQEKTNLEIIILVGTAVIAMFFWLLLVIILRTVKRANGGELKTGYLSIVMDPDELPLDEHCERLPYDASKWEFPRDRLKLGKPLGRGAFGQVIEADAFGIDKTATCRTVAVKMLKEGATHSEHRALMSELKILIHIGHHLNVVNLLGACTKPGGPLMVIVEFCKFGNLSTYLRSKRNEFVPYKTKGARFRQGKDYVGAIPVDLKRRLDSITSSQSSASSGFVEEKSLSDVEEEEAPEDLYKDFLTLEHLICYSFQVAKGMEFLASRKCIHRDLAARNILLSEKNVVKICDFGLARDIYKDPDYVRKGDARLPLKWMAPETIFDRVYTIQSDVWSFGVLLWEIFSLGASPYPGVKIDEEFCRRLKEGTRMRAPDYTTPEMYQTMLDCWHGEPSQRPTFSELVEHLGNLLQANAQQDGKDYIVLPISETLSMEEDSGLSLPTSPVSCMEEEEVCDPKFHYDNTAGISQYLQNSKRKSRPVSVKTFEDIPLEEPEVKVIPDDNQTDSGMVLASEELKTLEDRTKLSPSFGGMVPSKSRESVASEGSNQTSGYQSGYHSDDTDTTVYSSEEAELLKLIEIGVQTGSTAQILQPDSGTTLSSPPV
Excerpt: as §1
This assay was performed as for the Aurora A kinase assay, using VEGFR2 kinase, CSKtide as the substrate with 6 μM ATP and 1 mM MnCl2, a kinase reaction time of 1 hr, and dilution of the binding reagent 1:1200 in binding buffer A/binding buffer B (1:1).

[1] = system: HCT116 (human colon carcinoma) cells; test: HCT116 cytotoxicity assay (CellTiter-Glo); format: cell-based; conditions: HCT-116, 72 h, cytotoxicity, three days culture, read-out: HCT116 IC50
Excerpt: as §1
Log-phase cells were trypsinized, collected by centrifugation, and resuspended in a small volume of fresh medium, and the density of viable cells was determined following Trypan Blue staining. Cells were diluted in fresh media (1×10^4 cells/mL for HL60 and 4×10^4 cells/mL for HCT116 cells), the test compounds (concentrations between 0.1 μM and 200 μM, dissolved in DMSO, 50 μL) added immediately after dilution to achieve a final DMSO concentration of 0.5%, then the suspensions added at 150 μL/well to 96-well plates, and incubated overnight to allow attachment in the case of adherent cells. The cells were cultured for three days (about three doubling times). The cells were then collected by centrifugation, and 100 μL of the culture supernatant was replaced by the CellTiter-Glo reagent. After incubation for 15 minutes at room temperature, the plate was read with a luminometer.

Aurora A kinase = target: T3, Aurora A kinase (Homo sapiens, UniProt O14965); test: Aurora A kinase assay (IMAP fluorescence polarization); format: biochemical; conditions: 10 μM ATP; rounded to 1 significant figure; read-out: Aur-A IC50
T3 construct: purchased Upstate Biotech
T3 sequence (O14965 1-403): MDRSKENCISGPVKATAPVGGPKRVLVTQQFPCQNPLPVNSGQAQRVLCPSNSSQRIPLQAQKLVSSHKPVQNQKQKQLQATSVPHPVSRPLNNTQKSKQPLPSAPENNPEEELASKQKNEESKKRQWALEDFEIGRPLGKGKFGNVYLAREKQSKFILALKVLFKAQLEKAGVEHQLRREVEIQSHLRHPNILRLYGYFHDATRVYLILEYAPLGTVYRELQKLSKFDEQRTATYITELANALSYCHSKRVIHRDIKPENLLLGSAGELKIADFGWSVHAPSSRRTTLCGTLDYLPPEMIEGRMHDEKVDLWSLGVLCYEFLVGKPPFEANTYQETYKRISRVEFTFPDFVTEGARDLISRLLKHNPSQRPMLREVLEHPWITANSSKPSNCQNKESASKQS
Excerpt: as §1
as §2, with “Aurora A kinase assay: the test compounds were diluted in dimethylsulfoxide (DMSO, eight concentrations with serial 3-fold dilutions) and incubated (final DMSO concentration 2.5%) with Aurora A kinase at room temperature for 5 min in kinase reaction buffer with 1 mM dithiothreitol (IMAP FP Screening Express). The” for “The”

SMILES | IC50 (p-H3 in HCT116 cells) [nM] | IC50 (Aurora B kinase) [nM] | IC50 (VEGFR2 kinase) [nM] | IC50 [1] [nM] | IC50 (Aurora A kinase) [nM]
NC(=O)/C(=C1/Nc2cc(F)cc(F)c2N1)c1nccc(C(F)(F)F)n1 [Compound 36A] | > 5000 | 40 | 200 | 4000 | 30
Cn1cncc1CCc1ccc2c(c1)S/C(=C(/C(N)=O)c1nccc(C(F)(F)F)n1)N2 [Compound 98A] | – | 8 | – | – | 6
NC(=O)/C(=C1\Nc2ccc(I)cc2S1)c1nccc(C(F)(F)F)n1 [Compound 25A] | > 50000 | 100 | 400 | 10000 | 200
Cc1cc(C)nc(/C(C(N)=O)=C2/Nc3ccccc3S2)n1 [Compound 22A] | 2000 | 10 | 200 | 10000 | 80
NC(=O)/C(=C1\Nc2ccc(CCN3CCOCC3)cc2N1)c1nccc(C(F)(F)F)n1 [Compound 102A] | 50 | 7 | – | – | 4
NC(=O)/C(=C1\Nc2ccc(C(=O)O)cc2S1)c1nccc(C(F)(F)F)n1 [Compound 27A] | 1000 | 9 | 10 | 7000 | 3
NC(=O)/C(=C1\Nc2ccccc2S1)c1nc(NCCN2CCOCC2)cc(C(F)(F)F)n1 [Compound 137A] | 2000 | 30 | 40 | 2000 | 80
NCCCNC(=O)c1ccc2c(c1)N/C(=C(/C(N)=O)c1nccc(C(F)(F)F)n1)N2 [Compound 64A] | 900 | 20 | 10 | 2000 | 50
NC(=O)/C(=C1\Nc2ccc(CCO)cc2N1)c1nccc(C(F)(F)F)n1 [Compound 105A] | 100 | 7 | – | – | 5
NC(=O)/C(=C1\Nc2cccc(C(=O)NCCCN3CCOCC3)c2S1)c1nccc(C(F)(F)F)n1 [Compound 52A] | > 50000 | 60 | 100 | 1000 | 60
NCCCNC(=O)c1ccc2c(c1)S/C(=C(/C(N)=O)c1nccc(C(F)(F)F)n1)N2 [Compound 65A] | 400 | 20 | 7 | 200 | 30
NC(=O)C(=C1Nc2ccc([N+](=O)[O-])cc2S1)c1nccc(C(F)(F)F)n1 (single isomer, unassigned) [Compound 26A, 2-[6-nitrobenzothiazol-2(3H)-ylidene]-2-(4-trifluoromethylpyrimidin-2-yl)acetamide] | > 50000 | 100 | 1000 | 20000 | 200
Cc1ccnc(C(C(N)=O)=C2Nc3ccccc3N2)n1 [Compound 19A] | > 50000 | 30 | – | 20000 | 400
COC(=O)c1cc(C)nc(/C(C(N)=O)=C2/Nc3ccccc3S2)n1 [Compound 23A] | 8000 | 6 | 100 | 50000 | 70
COC(=O)c1ccc2c(c1)N/C(=C(/C(N)=O)c1nccc(C(F)(F)F)n1)N2 [Compound 29A] | > 5000 | 10 | 100 | 200 | 30
Cc1ccnc(/C(C(N)=O)=C2/Nc3ccccc3S2)n1 [Compound 18A] | 2000 | 40 | 500 | 20000 | 200
CCc1cnc(/C(C(N)=O)=C2/Nc3ccccc3S2)nc1 [Compound 21A] | – | 100 | 1000 | 20000 | 200
NC(=O)/C(=C1\Nc2ccc(C(=O)NC3CCNCC3)cc2N1)c1nccc(C(F)(F)F)n1 [Compound 70A] | 1000 | 10 | 4 | 600 | 60
NC(=O)/C(=C1\Nc2ccc(CO)cc2N1)c1nccc(C(F)(F)F)n1 [Compound 35A] | 600 | 5 | 20 | 200 | 9
COC(=O)c1cnc(/C(C(N)=O)=C2/Nc3ccccc3S2)nc1C(F)(F)F [Compound 3A] | 20000 | 10 | 90 | 3000 | 20
NC(=O)/C(=C1\Nc2ccc(N3CCC(N)C3)cc2S1)c1nccc(C(F)(F)F)n1 (centres unmarked) [Compound 123A] | 2000 | 40 | 90 | 4000 | 100
COC(=O)c1cnc(C(C(N)=O)=C2Nc3ccccc3N2)nc1C(F)(F)F [Compound 4A] | > 40000 | 10 | 30 | 2000 | 4
CCN(C(=O)c1ccc2c(c1)N/C(=C(/C(N)=O)c1nccc(C(F)(F)F)n1)N2)c1cccnc1 [Compound 43A] | – | 10 | – | – | 6
Cc1cc(C(=O)O)nc(/C(C(N)=O)=C2/Nc3ccccc3S2)n1 [Compound 24A] | – | 1000 | 400 | > 50000 | 900
NC(=O)/C(=C1\Nc2ccccc2S1)c1nc(OCCN2CCOCC2)cc(C(F)(F)F)n1 [Compound 14A] | > 50000 | 30 | 80 | 8000 | 50
NC(=O)/C(=C1\Nc2ccc(C(=O)N(CCO)CCO)cc2N1)c1nccc(C(F)(F)F)n1 [Compound 30A] | 1000 | 10 | 8 | – | 10
